Results reported in patent US5939437A, “CCK and gastrin receptor ligands” (James Black Foundation Limited, priority 1994, dated 1999).

Assays:
CCKB = biological target: T1, CCKB (Mus musculus, UniProt P56481); experiment: radioligand binding assay at the CCKB (CCK8 [sic]) receptor in mouse cortical membranes; details: [125I]-CCK8S 200 pM, 150 min at 21±3° C.; for Ki: read-out: CCKB pKi (converted)
T1 construct: The cortex was dissected, weighed and homogenised in 40 ml ice-cold buffer; from tissue; host or cells: cerebral cortex membranes of male CD1 mice (Charles River)
T1 sequence (P56481 1-453): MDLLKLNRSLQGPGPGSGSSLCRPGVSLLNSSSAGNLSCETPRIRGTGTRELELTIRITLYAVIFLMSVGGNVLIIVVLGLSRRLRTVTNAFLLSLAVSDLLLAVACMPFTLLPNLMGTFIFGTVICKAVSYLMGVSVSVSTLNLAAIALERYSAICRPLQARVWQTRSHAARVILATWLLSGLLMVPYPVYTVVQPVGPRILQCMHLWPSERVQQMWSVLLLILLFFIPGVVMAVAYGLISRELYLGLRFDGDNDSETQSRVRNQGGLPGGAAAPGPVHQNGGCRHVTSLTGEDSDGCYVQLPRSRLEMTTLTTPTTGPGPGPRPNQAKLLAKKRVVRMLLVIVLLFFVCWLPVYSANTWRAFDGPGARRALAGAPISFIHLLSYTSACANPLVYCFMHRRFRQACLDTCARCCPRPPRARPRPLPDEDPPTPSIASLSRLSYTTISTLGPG
Experimental: The compounds of the examples were tested for binding at the CCK8 receptor in mouse cortical membranes by means of a radioligand binding assay. The procedure was as follows: The whole brains from male mice (CD1 22-25 g; Charles River) were removed and placed in ice-cold buffer (pH7.2@21±3° C.) of the following composition (mM); 10 HEPES, 130 NaCl, 4.7 KCl, 5 MgCl2, 1 EDTA and containing 0.25 g.1^-1 bacitracin. The cortex was dissected, weighed and homogenised in 40 ml ice-cold buffer using a Teflon-in-glass homogeniser. The homogenate was centrifuged at 39,800 g for 20 min at 4° C., the supernatant discarded and the pellet resuspended by homogenisation in fresh buffer. The homogenate was recentrifuged (39,800 g; 20 min@4° C.) and the final pellet was resuspended in HEPES buffer to give a tissue concentration of 2 mg.ml^-1 (original wet weight). The membranes ([…]) were incubated for 150 min at 21±3° C. in a final volume of 0.5 ml with HEPES buffer containing [^25 I]-CCK8S (0.05 ml; 200 pM NEN 2200 Ci.mmol^-1) and competing compound. Total and non-specific binding of [^125 I]-CCK8S were defined using 0.05 ml of buffer and 0.05 ml of […] L-365,260, respectively. The assay was terminated by rapid filtration through pre-soaked Whatman GF/B 35 filters using a Brandell Cell harvester. The filters were washed (3×3 ml) with ice-cold 5 mM Tris-HCl (pH7.4@4° C.) and bound radioactivity determined by counting (1 min.) in a gamma-counter.

Gastrin = biological target: T2, Gastrin (Rattus norvegicus, UniProt P30553); experiment: gastrin antagonist activity in an immature rat stomach assay (pentagastrin-stimulated acid secretion, isolated stomach); details: cumulative pentagastrin dose-response curves, 60 min after drug; for Kb: read-out: Gastrin pKB (converted)
T2 construct: The stomach was excised and flushed with ca. 1 ml unbuffered physiological saline solution; from tissue; host or cells: isolated whole stomach of immature rats (33-50 g, ca. 21 days old)
T2 sequence (P30553 1-452): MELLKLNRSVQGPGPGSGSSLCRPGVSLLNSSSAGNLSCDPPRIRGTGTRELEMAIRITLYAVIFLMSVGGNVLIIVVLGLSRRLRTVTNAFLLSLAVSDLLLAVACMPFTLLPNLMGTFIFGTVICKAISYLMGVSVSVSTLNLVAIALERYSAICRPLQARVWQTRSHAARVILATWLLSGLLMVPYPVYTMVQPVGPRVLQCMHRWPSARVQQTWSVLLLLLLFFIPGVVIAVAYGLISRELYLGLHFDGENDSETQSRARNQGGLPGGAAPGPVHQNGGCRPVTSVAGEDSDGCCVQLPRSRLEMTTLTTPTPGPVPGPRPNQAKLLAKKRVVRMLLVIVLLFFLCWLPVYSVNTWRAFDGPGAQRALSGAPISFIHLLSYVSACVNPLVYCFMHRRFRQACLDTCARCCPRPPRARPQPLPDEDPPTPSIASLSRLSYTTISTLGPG
Experimental: The compounds of the examples were also tested for gastrin antagonist activity in an immature rat stomach assay. The procedure was follows:
The oesophagus of immature rats (33-50 g, ca. 21 days old) was ligated at the level of the cardiac sphincter and the duodenal sphincter was cannulated. The stomach was excised and flushed with ca. 1 ml unbuffered physiological saline solution. The fundus was punctured and cannulated. A further 4-5 ml of unbuffered solution was flushed through the stomach to ensure the preparation was not leaking. The stomach was lowered into a jacketed organ bath containing 40 ml of buffered solution containing 3×10^-8 M5methylfurmethide, maintained at 37° and gassed vigorously with 95% O2 /5% CO2. The stomach was continuously perfused at a rate of 1 ml min^-1 with unbuffered solution gassed with 100% O2 with the perfusate passing over an internally referenced pH-electrode fixed 12 cm above the stomach.
After 120 min of stabilisation the drugs were added directly to the serosal solution in the organ bath and after a further 60 min cumulative pentagastrin dose-response curves were started. Changes in acid secretion were monitored and the curves analysed according to Black et. al., Br. J. Pharmacol., 1985, 86, 581.

CCKA = biological target: T3, CCKA (Cavia porcellus, UniProt Q63931); experiment: CCKA binding assay (guinea-pig pancreas membranes); details: [125I]-CCK8(S) 200 pM, 0.375 μM PD134,308 present, 150 minutes at 21±3° C.; for Ki: read-out: CCKA pKi (converted)
T3 construct: The pancreatata were homogenised in 40 ml ice-cold HEPES buffer; from tissue; host or cells: pancreas membranes of male Dunkin Hartley guinea-pigs
T3 sequence (Q63931 1-430): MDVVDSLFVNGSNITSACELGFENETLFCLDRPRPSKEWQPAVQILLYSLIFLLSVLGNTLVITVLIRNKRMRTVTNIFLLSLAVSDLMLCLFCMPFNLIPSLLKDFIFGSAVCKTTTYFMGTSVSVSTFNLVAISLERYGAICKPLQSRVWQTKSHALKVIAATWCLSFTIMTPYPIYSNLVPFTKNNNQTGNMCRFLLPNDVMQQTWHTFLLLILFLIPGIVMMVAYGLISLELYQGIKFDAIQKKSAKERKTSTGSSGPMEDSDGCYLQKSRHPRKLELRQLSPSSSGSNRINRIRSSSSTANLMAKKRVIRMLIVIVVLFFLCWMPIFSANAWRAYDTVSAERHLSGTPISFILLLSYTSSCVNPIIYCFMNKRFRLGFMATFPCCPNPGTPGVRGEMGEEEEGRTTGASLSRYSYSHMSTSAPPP
Experimental: The compounds of the examples were also tested in a CCKA binding assay as follows:
The pancreatata were removed from male guinea-pigs (200-300 g; Dunkin Hartley) and placed in ice-cold HEPES buffer (pH 7.2@21 ±3° C.). The pancreatata were homogenised in 40 ml ice-cold HEPES buffer using a polytron (Brinkman, PT10, setting 10) 4×1 second. The homogenate was centrifuged at 39,800 g for 15 min at 4° C. The supernatant was discarded and the pellet re-suspended using a Teflon-in-glass homogeniser in 20 volumes of fresh buffer and re-centrifuged as above. The final pellet was re-suspended using a Teflon-in-glass homogeniser to a tissue concentration of 1 mg.ml^-1 (original wet weight), and filtered through 500 μm pore-size Nytex mesh.
The membranes (400 μl; containing 0.375 μM PD134,308) are incubated for 150 minutes at 21±3° C. in a final volume of 0.5 ml with HEPES buffer containing [^125 I]-CCK8 (S) (50 μl; 200 pM) and competing compound. Total and non-specific binding of [^125 I]-CCK^8 (S) are defined using 50 μl of buffer and 50 μl of 100 nM L-364,718respectively. The assay is terminated by rapid filtration through pre-soaked Whatman GF/B filters using a Brandell Cell Harvester. The filters were washed (3×3 ml) with ice-cold 50 mM Tris HCl (pH 7.4 at 4° C. and bound radioactivity is determined by counting (1 min) in a gamma counter.

Ki (CCKB) [nM]	Kb (Gastrin) [nM]	Ki (CCKA) [µM]	CCKB pKi (CCKB)	Gastrin pKB (Gastrin)	CCKA pKi (CCKA)	SMILES
100	63.1	3.16	–	–	–	O=C(O)c1cc(NC(=O)[C@H](Cc2ccccc2)NC(=O)c2cccc3c2C(=O)N(CC24CC5CC(CC(C5)C2)C4)C3)cc(C(=O)O)c1 [Example 26, 7-(1S-(3,5-dicarboxyphenylamino-carbonyl)-2-phenylethylaminocarbonyl)-2-(1-adamantanemethyl)indol-1-one]
200	63.1	3.98	–	–	–	Nc1ccc(C(=O)N[C@@H](Cc2ccccc2)C(=O)Nc2cc(C(=O)O)cc(C(=O)O)c2)c(C(=O)NCC23CC4CC(CC(C4)C2)C3)c1 [Example 16, 1-(1S-(3,5-dicarboxyphenylamino-carbonyl)-2-phenylethylaminocarbonyl)-2-(1-adamantanemethyl-25 aminocarbonyl)-4-aminobenzene]
–	–	–	7.0	7.7	5.3	O=C(O)c1cc(NC(=O)[C@H](Cc2ccccc2F)NC(=O)c2ccccc2C(=O)NCC23CC4CC(CC(C4)C2)C3)cc(C(=O)O)c1 [Example 4]
–	–	–	6.3	6.1	6.3	O=C(O)c1cc(NC(=O)[C@H](Cc2ccccc2)NC(=O)c2ccccc2C(=O)NCc2ccc3ccccc3c2)cc(C(=O)O)c1 [Example 6, (1R-(3,5-dicarboxyphenylaminocarbonyl)-2-phenylethylaminocarbonyl)-2-(2-naphthalenemethylaminocarbonyl)-benzene]
